{"source": "patent US4689326A", "about": "“Process for controlling hyperlipidemia” (Research Corporation, priority 1985, dated 1987)", "key": {"[1]": {"molecular_target": "T1, HMG CoA Reductase (Mus musculus, UniProt Q01237)", "T1 construct": "10% homogenates of CF1 male mouse liver; from tissue; host or cells: CF1 male mouse liver, 10% homogenate", "T1 sequence (Q01237 1-887)": "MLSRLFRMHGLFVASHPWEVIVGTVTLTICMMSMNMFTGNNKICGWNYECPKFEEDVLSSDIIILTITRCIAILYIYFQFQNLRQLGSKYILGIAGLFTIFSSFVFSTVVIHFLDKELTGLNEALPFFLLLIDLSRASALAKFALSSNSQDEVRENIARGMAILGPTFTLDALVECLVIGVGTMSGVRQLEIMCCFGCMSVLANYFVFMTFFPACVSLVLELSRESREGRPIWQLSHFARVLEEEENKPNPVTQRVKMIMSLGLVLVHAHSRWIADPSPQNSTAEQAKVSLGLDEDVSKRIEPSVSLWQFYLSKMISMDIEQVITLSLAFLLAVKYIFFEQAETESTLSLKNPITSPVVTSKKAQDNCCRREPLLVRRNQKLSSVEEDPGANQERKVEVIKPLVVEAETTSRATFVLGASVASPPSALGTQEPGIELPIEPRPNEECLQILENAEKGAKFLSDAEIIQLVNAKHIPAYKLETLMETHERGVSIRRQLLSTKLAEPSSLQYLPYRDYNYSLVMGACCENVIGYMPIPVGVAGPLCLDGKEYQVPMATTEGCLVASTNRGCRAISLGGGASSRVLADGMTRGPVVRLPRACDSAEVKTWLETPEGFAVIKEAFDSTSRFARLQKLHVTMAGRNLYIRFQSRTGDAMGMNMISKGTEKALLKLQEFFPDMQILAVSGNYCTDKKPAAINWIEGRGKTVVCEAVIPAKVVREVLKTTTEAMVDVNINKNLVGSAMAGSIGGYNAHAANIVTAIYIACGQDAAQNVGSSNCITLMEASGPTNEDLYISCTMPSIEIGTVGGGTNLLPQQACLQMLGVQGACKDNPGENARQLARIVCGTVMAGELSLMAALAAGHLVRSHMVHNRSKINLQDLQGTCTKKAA", "assay": "In vitro enzyme activity, liver homogenate: HMG CoA reductase", "format": "biochemical, CF1 male mouse", "details": "± SD, N = 6, read-out: Percent Control, in vitro enzyme activity", "experimental": "In vitro enzymatic studies were undertaken using 10% homogenates of CF1 male mouse liver with […] of compound 3,4,5,6-dibenzohomopiperidine. In addition, in vivo enzymatic studies were performed, again using 10% liver homogenates (prepared in 0.25 M sucrose plus 0.001 M (ethylenedinitrilo)-tetraacetic acid, ph 7.25 from CF1 male mice obtained after administering 3,4,5,6-dibenzohomopiperidine for 16 days at a concentration ranging from 10 to 60 mg/kg/day, intraperitoneally.\nThe following enzyme activities were determined by following standard literature procedures: acetyl coenzyme synthetase; adenosine triphosphate dependent citrate lyase; mitochondrial citrate exchange; cholesterol/7 hydroxylase; 3-hydroxy-3-methyl-glutaryl coenzyme A reductase; acetyl coenzyme A carboxylase activity; fatty acid synthetase activity; sn-glycerol-3-phosphate acyl transferase activity; phosphatidate phosphohydrolase activity; cholesterol acyl transferase; and heparin activated hepatic lypoprotein lipase. Protein was determined for all enzyme assays by the Lowry et al. technique (J. Biol. Chem, 193, 265 (1951))."}, "[2]": {"tested_on": "liver, small intestine and fecal materials", "assay": "Lipid Extraction Studies in Mice, Example 10", "format": "in vivo, CF1 male mice", "details": "± SD", "experimental": "The CF1 male mice that had been administered compound 3,4,5,6-dibenzohomopiperidine at four dosage levels as well as the control mice, were sacrificed and the liver, small intestine and fecal materials (24 hour collection) were removed, extracted and analyzed for cholesterol level, triglycerides level, neutral lipid content and phospholipid content. Table 8 reports the decrease in measured levels of these concentrations as a percentage of the level in the control. The control, it is noted, is always 100%."}}}
{"smiles": "c1ccc2c(c1)CNCc1ccccc1-2", "note": "[Compound 3, 3,4,5,6-dibenzohomopiperidine]", "values": [{"measurement": "remaining activity at 50 µM", "setting": "[1]; 50 μM", "value": "95 ± 5", "unit": "%"}, {"measurement": "remaining activity at 100 µM", "setting": "[1]; 100 μM", "value": "151 ± 9", "unit": "%"}, {"measurement": "remaining activity at 200 µM", "setting": "[1]; 200 μM", "value": "255 ± 8", "unit": "%"}, {"measurement": "Cholesterol, concentration as a function of control", "setting": "[2]; 20 mg/kg", "value": "55 ± 5", "unit": "%"}, {"measurement": "Lipid wt, concentration as a function of control", "setting": "[2]; 20 mg/kg", "value": "62 ± 6", "unit": "%"}, {"measurement": "Neutral lipid, concentration as a function of control", "setting": "[2]; 20 mg/kg", "value": "50 ± 5", "unit": "%"}, {"measurement": "Phospholipid, concentration as a function of control", "setting": "[2]; 20 mg/kg", "value": "100 ± 7", "unit": "%"}, {"measurement": "Protein, concentration as a function of control", "setting": "[2]; 20 mg/kg", "value": "95 ± 8", "unit": "%"}, {"measurement": "Triglyceride, concentration as a function of control", "setting": "[2]; 20 mg/kg", "value": "37 ± 4", "unit": "%"}, {"measurement": "Cholesterol, concentration as a function of control", "setting": "[2]; 40 mg/kg", "value": "114 ± 8", "unit": "%"}, {"measurement": "Lipid wt, concentration as a function of control", "setting": "[2]; 40 mg/kg", "value": "112 ± 9", "unit": "%"}, {"measurement": "Neutral lipid, concentration as a function of control", "setting": "[2]; 40 mg/kg", "value": "95 ± 6", "unit": "%"}, {"measurement": "Phospholipid, concentration as a function of control", "setting": "[2]; 40 mg/kg", "value": "84 ± 7", "unit": "%"}, {"measurement": "Protein, concentration as a function of control", "setting": "[2]; 40 mg/kg", "value": "103 ± 7", "unit": "%"}, {"measurement": "Triglyceride, concentration as a function of control", "setting": "[2]; 40 mg/kg", "value": "70 ± 5", "unit": "%"}, {"measurement": "Cholesterol, concentration as a function of control", "setting": "[2]; 60 mg/kg", "value": "99 ± 5", "unit": "%"}, {"measurement": "Lipid wt, concentration as a function of control", "setting": "[2]; 60 mg/kg", "value": "106 ± 8", "unit": "%"}, {"measurement": "Neutral lipid, concentration as a function of control", "setting": "[2]; 60 mg/kg", "value": "90 ± 6", "unit": "%"}, {"measurement": "Phospholipid, concentration as a function of control", "setting": "[2]; 60 mg/kg", "value": "91 ± 8", "unit": "%"}, {"measurement": "Protein, concentration as a function of control", "setting": "[2]; 60 mg/kg", "value": "104 ± 8", "unit": "%"}, {"measurement": "Triglyceride, concentration as a function of control", "setting": "[2]; 60 mg/kg", "value": "74 ± 6", "unit": "%"}, {"measurement": "Cholesterol, concentration as a function of control", "setting": "[2]; 10 g/kg (so in the source)", "value": "83 ± 6", "unit": "%"}, {"measurement": "Lipid wt, concentration as a function of control", "setting": "[2]; 10 g/kg (so in the source)", "value": "92 ± 7", "unit": "%"}, {"measurement": "Neutral lipid, concentration as a function of control", "setting": "[2]; 10 g/kg (so in the source)", "value": "75 ± 6", "unit": "%"}, {"measurement": "Phospholipid, concentration as a function of control", "setting": "[2]; 10 g/kg (so in the source)", "value": "78 ± 6", "unit": "%"}, {"measurement": "Protein, concentration as a function of control", "setting": "[2]; 10 g/kg (so in the source)", "value": "98 ± 9", "unit": "%"}, {"measurement": "Triglyceride, concentration as a function of control", "setting": "[2]; 10 g/kg (so in the source)", "value": "48 ± 4", "unit": "%"}]}
